Data: US20230045629A1, “TREATMENT OF PROGRESSIVE SUPRANUCLEAR PALSY” (NATIONAL UNIVERSITY CORPORATION TOKAI NATIONAL HIGHER …, priority 2020, published 2023)

Tested on: AT8-positive phosphorylated tau
Test: Actin polymerization inhibitor on phosphorylated tau in primary cortical neurons from fetal mouse brain electroporated in utero with FLNA, fluorescent immunostaining
Type: cell-based
Conditions: wild-type FLNA introduced at E14, primary cortical neurons collected at E15, 2 DIV; compared with 0.1% DMSO (control)
From the text: FIG. 17-2: Continued from FIG. 17. (b): Each plasmid was introduced into a fetal mouse brain in a mouse at 14 days of gestation (E14) by in utero electroporation, and primary cortical neurons were collected at 15 days of gestation (E15), followed by 2-day cell culture (2 DIV) and then fluorescent immunostaining. At the time of administration of 0.1% DMSO (control), the expression level of AT8-positive phosphorylated tau was increased because of wild-type FLNA (FLNA^WT) but not at the time of administration of an actin polymerization inhibitor cytochalasin D (CytoD). The multiple asterisks “***” indicate a Tukey's test P value of less than 0.001.
The FLNA gene was induced into the brain of a fetal mouse in a mouse at 14 days of gestation (E14).

C=C1[C@@H](C)[C@H]2[C@H](Cc3ccccc3)NC(=O)[C@]23[C@H](OC(C)=O)/C=C/[C@@](C)(O)C(=O)[C@@H](C)C/C=C/[C@H]3[C@@H]1O [cytochalasin D (CytoD)]
expression level of AT8-positive phosphorylated tau: did not cause an increase
